Measurements from US7341983B2, “Antimicrobial compositions including carboxylic acids and alkoxylated amines” (Ecolab Inc., priority 2003, dated 2008).

Assay: Solution appearance with various types and amounts of alkoxylated amines
Format: physicochemical
Conditions: 2.4 wt-% octanoic acid, 21 wt-% phosphoric acid (75%), 8.0 wt-% citric acid, remainder water
From the text: Test compositions were made with varying amounts and types of alkoxylated amines. These were made to include 2.4 wt-% octanoic acid, 21 wt-% phosphoric acid (75%), 8.0 wt-% citric acid, varying amounts of alkoxylated amine, with the remainder water.

## iso-(2-hydroxyethyl) isodecyloxypropylamine [Alkoxylated Amine 6]
2.5 wt-% alkoxylated amine
  Solution appearance: hazy yellow
3 wt-% alkoxylated amine
  Solution appearance: hazy yellow
3.5 wt-% alkoxylated amine
  Solution appearance: hazy
4 wt-% alkoxylated amine
  Solution appearance: milky yellow
4.5 wt-% alkoxylated amine
  Solution appearance: opaque-yellow
5 wt-% alkoxylated amine
  Solution appearance: separated
